What all share (experiment): growth of human tumour cells (NCI), 48 h
Assay [1] concerns CCRF-CEM leukemia.
The test system of assay [2] is HCT-15 colon.
In assay [3] the test system is K-562 leukemia.
Assay [4] has as its system NCI-H226 lung.
Assay [5] relates to OVCAR-3 ovarian.
For assay [6], the system named is RPMI-8226 leukemia.
The test system of assay [7] is SW-620 colon.
Assay [8] has as its system UACC-257 melanoma.

Structures are written as SMILES.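 Method: 48-hour compound exposure of cells in 96-well plates, five concentrations, linear interpolation of endpoints. Here, GI50 denotes the concentration required for 50% inhibition of growth. TGI marks complete inhibition of growth.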

As for `Cn1ncc2cc(-c3cnc(N)c(Cl)c3N3CCC4(CCNC4=O)CC3)ccc21`, the GI50 in assay [1] was 36.9 µM; in assay [2], 22.7 µM; in assay [3], 45.5 µM; in assay [4], 38.1 µM; in assay [5], 42.9 µM; in assay [6] it was 16 µM. In addition, the GI50 in assay [7] is 21.3 µM; in assay [8], 31.2 µM. For the same compound, the TGI was greater than 100 µM in assay [1]; greater than 100 µM in assay [2]; greater than 100 µM in assay [3]; greater than 100 µM in assay [4]; greater than 100 µM in assay [5]; 95.5 µM in assay [6]. Also, the figures for the TGI in assay [7] and in assay [8] were greater than 100 µM and 66.1 µM, respectively.

Turning to `C[C@]12CC[C@H](O)CC1=CC[C@@H]1[C@@H]2CC[C@]2(C)C(=O)/C(=C/c3cccc(OCCCn4ccnc4)c3)C[C@@H]12`, the GI50 is 16.4 µM in assay [1]; 16.8 µM in assay [2]; 16 µM in assay [3]; 21.4 µM in assay [4]; 28.8 µM in assay [5]; 10.1 µM in assay [6]. The GI50 in assay [7] was 19.7 µM. Besides, the TGI in assay [1] is greater than 100 µM; in assay [2] it was 40.4 µM; in assay [3], 58.1 µM; in assay [4], 50.2 µM; in assay [5], greater than 100 µM; in assay [6], 31.6 µM. Moreover, the TGI in assay [7] was 40.9 µM.

`CO/N=C(\c1ccccc1)c1cnn(-c2ccccc2)c1N`: the GI50 in assay [1], in assay [2], in assay [3], in assay [4], in assay [5] and in assay [6] was greater than 25 µM throughout. Further, the GI50 in assay [7] and in assay [8] was greater than 25 µM in each case. Also, the TGI in assay [1], in assay [2], in assay [3], in assay [4], in assay [5] and in assay [6] was greater than 25 µM in each case. The TGI in assay [7] and in assay [8] was greater than 25 µM each time.

Turning to `O=C1OCC(c2ccc(O)c(O)c2)=C1c1cc(O)c(O)c(O)c1`, the GI50 in assay [1] is 30.4 µM; in assay [2], 19.3 µM; in assay [3], 21.2 µM; in assay [4] it was 69 µM; in assay [5] it was 12.9 µM; in assay [6], 26.2 µM. Also, the results for the GI50 in assay [7] and in assay [8] were 21.1 µM and 93.8 µM, respectively. Also, the TGI in assay [1] was greater than 100 µM; in assay [2], 44.1 µM; in assay [3], 46.1 µM; in assay [4], greater than 100 µM; in assay [5], 26.5 µM; in assay [6], 79 µM. Moreover, the results for the TGI in assay [7] and in assay [8] were 42.8 µM and greater than 100 µM, respectively.

Take `CS(=O)(=O)c1nccc(-c2c(-c3cccc(OCc4ccc(F)cc4)c3)nc3sccn23)n1`: the GI50 was 8.73 µM in assay [1]; 10.9 µM in assay [2]; 6.67 µM in assay [3]; 21.6 µM in assay [4]; 19 µM in assay [5]; 5.16 µM in assay [6]. Further, the GI50 in assay [7] is 5.32 µM; in assay [8] it was 5 µM. Besides, the TGI in assay [1] was greater than 100 µM; in assay [2], greater than 100 µM; in assay [3] it was greater than 100 µM; in assay [4], greater than 100 µM; in assay [5], greater than 100 µM; in assay [6] it was greater than 51 µM. The TGI in assay [7] is greater than 100 µM; in assay [8] it was 14.8 µM.

`O=C1C(=O)c2ccc(Br)cc2-c2cc(Br)ccc21`: the GI50 in assay [1] is 0.553 µM; in assay [2], 1.28 µM; in assay [3] it was 0.799 µM; in assay [4], greater than 60.1 µM; in assay [5], 0.619 µM; in assay [6], 1.63 µM. The GI50 in assay [7] is 0.84 µM; in assay [8], 1.62 µM. In addition, the TGI in assay [1] is 1.83 µM; in assay [2], greater than 35 µM; in assay [3] it was greater than 29.8 µM; in assay [4] it was greater than 100 µM; in assay [5] it was 1.36 µM; in assay [6], 6.82 µM. Moreover, the TGI in assay [7] was 2.91 µM; in assay [8] it was 4.19 µM.

Consider `COc1ccc(-c2cc3cccc(OC)c3c(=O)o2)cc1OC`, for which the GI50 in assay [1] is 30.9 µM; in assay [2], 23.4 µM; in assay [3], 26.3 µM; in assay [4], 2.35 µM; in assay [5], 43.4 µM; in assay [6] it was 29.7 µM. The results for the GI50 in assay [7] and in assay [8] were 40 µM and 92.8 µM, respectively. Further, the TGI in assay [1] is greater than 100 µM; in assay [2], greater than 100 µM; in assay [3] it was greater than 100 µM; in assay [4], 86.5 µM; in assay [5], greater than 100 µM; in assay [6], greater than 100 µM. Moreover, the TGI in assay [7] and in assay [8] was greater than 100 µM each time.

For the compound `COc1cc(-c2c3c(cn2S(=O)(=O)c2ccccc2)-c2nc(N)sc2CC3)cc(OC)c1OC`, the GI50 is 0.432 µM in assay [2]; 0.431 µM in assay [3]; 11.2 µM in assay [4]; 0.414 µM in assay [5]; 0.79 µM in assay [6]; 0.39 µM in assay [7]. Further, in assay [8], the GI50 was 10.3 µM. For the same compound, the TGI in assay [2] was 27.2 µM; in assay [3] it was greater than 100 µM; in assay [4], 47.4 µM; in assay [5], 6.9 µM; in assay [6], 56 µM; in assay [7] it was greater than 100 µM. The same compound registered a TGI in assay [8] of 60.1 µM.

With `CC(C)C1CN1CC(O)Cn1ccnc1[N+](=O)[O-]` (stereo unspecified), the TGI in assay [1], in assay [2], in assay [3], in assay [4], in assay [5] and in assay [7] was greater than 100 µM each time. Further, the TGI in assay [8] was greater than 100 µM.

The values are drawn from PubChem BioAssay (NCI).
